For eight compounds, Activity results are on record in ChEMBL document CHEMBL3867424, “Exploring the readthrough of nonsense mutations by non-acidic Ataluren analogues selected by ligand-based virtual screening” (Eur J Med Chem, 2016).

Active and inactive are the calls of the source. The rule behind the calls is not given here.

The nature of data set [1]: Cytotoxicity against human HeLa cells assessed as reduction in cell viability at 12 uM measured after 24 to 72 hrs. In kind it is toxicity, cell-based.
Data set [2] can be described thus: Cytotoxicity against human HeLa cells assessed as reduction in cell viability at 300 ug/ml measured after 24 to 72 hrs. In kind it is toxicity, cell-based.
Data set [3] concerns IB3-1. The experiment in a line: Binding affinity to CFTR mRNA UGA mutant in human IB3-1 cells carrying W1282X mutation in CFTR gene assessed as suppression of nonsense mutations by read-through of UGA premature stop codon measured as induction of CFTR re-expression after 24 hrs by DAPI/Alexa-488/WGA-Alexa594 staining-based immunofluorescence analysis. The class given is cell-based.

Data set [4] concerns IB3-1. The experiment in a line: Binding affinity to CFTR mRNA UGA mutant in human IB3-1 cells carrying W1282X mutation in CFTR gene assessed as suppression of nonsense mutations by read-through of UGA premature stop codon measured as localization of CFTR in cell membrane after 24 hrs by DAPI/Alexa-488/WGA-Alexa594 staining-based immunofluorescence analysis. In kind it is cell membranes.

Another data set concerns HeLa. The experiment in a line: Binding affinity to Photinus pyralis luciferase mRNA harboring the UGA premature stop codon expressed in human HeLa cells assessed as suppression of nonsense mutations by read-through of premature stop codon at 12 uM measured after 24 hrs by luminescence analysis. The class given is cell-based.
Data set [5] has as its system IB3-1. Put plainly: Binding affinity to CFTR mRNA UGA mutant in human IB3-1 cells carrying W1282X mutation in CFTR gene assessed as increase in CFTR expression measured after 24 to 72 hrs by Western blot analysis. In kind it is cell-based. In general terms: In western blotting, separated proteins are transferred to a membrane and probed.

Regarding `Cc1cccc(-c2nc(-c3cccnc3)no2)c1`, the Activity entry in data set [1] is recorded as “Non-Toxic”. Same read-out and setting: then `Cc1cccc(-c2noc(-c3ccccc3C)n2)c1`, with “Non-Toxic”; and `Cc1cccc(-c2nc(-c3ccccc3)no2)c1`, with “Non-Toxic”; and `Cc1cccc(-c2nc(-c3ccncc3)no2)c1`, with “Non-Toxic”. With `CN[C@@H]1[C@@H](O)[C@@H](O[C@H]2[C@H](O)[C@@H](O[C@H]3O[C@H](C(C)O)[C@@H](O)[C@H](O)[C@H]3N)[C@H](N)C[C@@H]2N)OC[C@]1(C)O` (some centres undefined), the Activity result in data set [2] was “Toxic”. Regarding `Cc1cccc(-c2nc(-c3ccccn3)no2)c1`, the result in the data set with IB3-1 [3], with IB3-1 [4], with HeLa and in the data set on IB3-1 [5] was Active. Besides, the Activity entry in data set [1] is given as “Non-Toxic”. In the case of `O=C(O)c1cccc(-c2noc(-c3ccccc3F)n2)c1` [ATALUREN], the Activity entry in data set [1] is reported as “Non-Toxic”. Further, the outcome in the data set with HeLa and with IB3-1 [5] was Active.

On to `N#Cc1cccc(-c2nc(-c3ccccn3)no2)c1`, for which the Activity entry in data set [1] is on record as “Non-Toxic”.
